Experimental data from the NIST ThermoML archive (doi:10.1021/je700699u).
Numbers after ± are expanded uncertainties.

Assay: cn = amount concentration of the nth substance listed, in mol/dm3
Details: 101 kPa, Liquid

N=C(N)NCCC[C@H](N)C(=O)[O-].[K+] [potassium L-argininate] + O
Details	mass density, 298.15 K [kg/m3]	mass density, 303.15 K [kg/m3]	mass density, 313.15 K [kg/m3]	mass density, 323.15 K [kg/m3]	mass density, 333.15 K [kg/m3]	viscosity, 298.15 K [mPa·s]	viscosity, 303.15 K [mPa·s]	viscosity, 313.15 K [mPa·s]	viscosity, 323.15 K [mPa·s]	viscosity, 333.15 K [mPa·s]
c1 = 0.238	1021 ± 2	1019 ± 2	1016 ± 2	1011 ± 2	1007 ± 2	1.026 ± 0.033	0.917 ± 0.03	0.75 ± 0.025	0.63 ± 0.022	0.539 ± 0.019
c1 = 0.479	1043 ± 2	1041 ± 2	1037 ± 2	1032 ± 2	1027 ± 2	1.215 ± 0.038	1.098 ± 0.035	0.886 ± 0.029	0.738 ± 0.025	0.632 ± 0.022
c1 = 0.725	1064 ± 2	1062 ± 2	1058 ± 2	1053 ± 2	1048 ± 2	1.431 ± 0.044	1.276 ± 0.04	1.035 ± 0.033	0.856 ± 0.028	0.723 ± 0.024
c1 = 0.971	1087 ± 3	1085 ± 3	1080 ± 3	1075 ± 3	1069 ± 3	1.882 ± 0.057	1.553 ± 0.047	1.244 ± 0.039	1.019 ± 0.033	0.848 ± 0.028

N[C@@H](CCC(=O)O)C(=O)[O-].[K+] [potassium (S)-2-amino-4-carboxybutanoate] + O
Details	mass density, 298.15 K [kg/m3]	mass density, 303.15 K [kg/m3]	mass density, 313.15 K [kg/m3]	mass density, 323.15 K [kg/m3]	mass density, 333.15 K [kg/m3]	viscosity, 298.15 K [mPa·s]	viscosity, 303.15 K [mPa·s]	viscosity, 313.15 K [mPa·s]	viscosity, 323.15 K [mPa·s]	viscosity, 333.15 K [mPa·s]
c1 = 0.248	1029 ± 2	1027 ± 2	1024 ± 2	1019 ± 2	1017 ± 2	1.011 ± 0.032	0.908 ± 0.029	0.744 ± 0.025	0.623 ± 0.021	0.535 ± 0.019
c1 = 0.493	1059 ± 2	1057 ± 2	1054 ± 2	1049 ± 2	1047 ± 2	1.163 ± 0.036	1.041 ± 0.033	0.854 ± 0.028	0.713 ± 0.024	0.611 ± 0.021
c1 = 0.733	1088 ± 3	1086 ± 3	1083 ± 3	1078 ± 3	1076 ± 3	1.344 ± 0.042	1.199 ± 0.037	0.982 ± 0.031	0.817 ± 0.027	0.699 ± 0.024
c1 = 1	1117 ± 3	1116 ± 3	1112 ± 3	1107 ± 3	1105 ± 3	1.579 ± 0.048	1.404 ± 0.043	1.143 ± 0.036	0.953 ± 0.031	0.809 ± 0.027
c1 = 1.24	1145 ± 4	1143 ± 4	1139 ± 4	1134 ± 4	1132 ± 4	1.844 ± 0.055	1.644 ± 0.05	1.336 ± 0.041	1.101 ± 0.035	0.933 ± 0.03
c1 = 1.469	1173 ± 4	1171 ± 4	1167 ± 4	1162 ± 4	1160 ± 4	2.194 ± 0.065	1.962 ± 0.059	1.57 ± 0.048	1.295 ± 0.04	1.089 ± 0.034
